# Reference: ChEMBL document CHEMBL1146060, “Guanidinylated 2,5-dideoxystreptamine derivatives as anthrax lethal factor inhibitors” (Bioorg Med Chem Lett, 2006)
# pKi: −log10 of the molar value.
# Molecular target: T1, Lethal factor (Bacillus anthracis, UniProt P15917)
# T1 sequence (P15917 whole entry): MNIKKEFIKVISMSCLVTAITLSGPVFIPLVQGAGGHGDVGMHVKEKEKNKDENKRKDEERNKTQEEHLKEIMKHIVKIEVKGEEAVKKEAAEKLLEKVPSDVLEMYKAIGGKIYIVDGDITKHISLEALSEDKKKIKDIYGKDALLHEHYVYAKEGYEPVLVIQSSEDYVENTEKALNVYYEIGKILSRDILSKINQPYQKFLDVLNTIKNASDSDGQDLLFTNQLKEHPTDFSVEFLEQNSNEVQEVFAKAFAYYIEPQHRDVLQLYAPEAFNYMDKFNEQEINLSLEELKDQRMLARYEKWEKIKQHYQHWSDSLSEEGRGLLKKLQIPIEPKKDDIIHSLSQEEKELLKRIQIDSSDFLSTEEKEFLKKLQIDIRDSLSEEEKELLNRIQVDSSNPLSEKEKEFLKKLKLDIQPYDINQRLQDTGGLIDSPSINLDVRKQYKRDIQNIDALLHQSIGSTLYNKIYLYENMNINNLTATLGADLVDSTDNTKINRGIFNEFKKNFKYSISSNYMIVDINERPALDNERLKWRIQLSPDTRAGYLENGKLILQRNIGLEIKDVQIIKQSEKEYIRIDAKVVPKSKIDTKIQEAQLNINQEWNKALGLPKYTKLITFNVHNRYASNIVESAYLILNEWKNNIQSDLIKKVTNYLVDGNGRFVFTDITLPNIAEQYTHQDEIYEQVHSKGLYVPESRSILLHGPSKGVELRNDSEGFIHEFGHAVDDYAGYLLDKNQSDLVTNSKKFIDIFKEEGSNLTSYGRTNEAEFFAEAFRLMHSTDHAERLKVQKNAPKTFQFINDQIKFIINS
# Assay: Inhibition of Bacillus anthracis LF by FRET assay
# Conditions: read-out: Ki app
row,SMILES,pKi
1,N=C(N)Nc1cc(NC(=N)N)c2ccccc2c1[C@H]1C[C@@H](O)[C@H](NC(=N)N)C[C@@H]1NC(=N)N,4.97
2,N=C(N)N[C@H]1C[C@@H](NC(=N)N)[C@H](O)C[C@@H]1c1ccc2[nH]c(N)nc2c1,3.81
3,N=C(N)Nc1ccccc1NC(=O)O[C@H]1C[C@@H](O)[C@H](NC(=N)N)C[C@@H]1NC(=N)N,4.61
4,N=C(N)Nc1ccc([C@H]2C[C@@H](O)[C@H](NC(=N)N)C[C@@H]2NC(=N)N)c2ccccc12,4.50
5,N=C(N)Nc1ccc(O[C@H]2C[C@@H](Oc3ccc(NC(=N)N)cc3NC(=N)N)[C@H](NC(=N)N)C[C@@H]2NC(=N)N)c(NC(=N)N)c1,7.19
6,N=C(N)Nc1ccccc1[C@H]1C[C@@H](O)[C@H](NC(=N)N)C[C@@H]1NC(=N)N,4.51
7,N=C(N)Nc1ccc([C@H]2C[C@@H](O)[C@H](NC(=N)N)C[C@@H]2NC(=N)N)cc1,4.83
8,N=C(N)Nc1cccnc1[C@H]1C[C@@H](O)[C@H](NC(=N)N)C[C@@H]1NC(=N)N,5.39
9,N=C(N)Nc1ccc([C@H]2C[C@@H](O)[C@H](NC(=N)N)C[C@@H]2NC(=N)N)nc1,5.18
10,Cc1cc(NC(=O)O[C@@H]2C[C@H](Oc3ccc(NC(=N)N)cc3N=C(N)N)[C@@H](N=C(N)N)C[C@H]2N=C(N)N)ccc1F,6.30
11,N=C(N)Nc1ccc([C@H]2C[C@@H](O)[C@H](NC(=N)N)C[C@@H]2NC(=N)N)c(NC(=N)N)c1,6.22
